pIC50: −log10 of the molar value. Residues, ends and D or L forms follow the SMILES beside them. *: point of attachment. X6 = CC(=O)OC[C@@H]1O[C@H](n2cc(C*)nn2)[C@@H](OC(C)=O)[C@H](OC(C)=O)[C@@H]1OC(C)=O; X3 = CC(=O)N[C@H]1[C@H](OC(C)=O)[C@H](OC(C)=O)[C@H](COC(C)=O)O[C@@H]1n1cc(C*)nn1; X1 = CC(=O)OC[C@@H]1OC(OC(C)=O)[C@@H](n2cc(C*)nn2)[C@H](OC(C)=O)[C@@H]1OC(C)=O; X9 = CC(=O)N[C@@H]1[C@H](OCCCn2cc(C*)nn2)O[C@@H](CO)[C@@H](O)[C@H]1O; X4 = CC(=O)N[C@H]1[C@H](O)[C@H](O)[C@H](CO)O[C@@H]1n1cc(C*)nn1; X5 = O=C(N[C@@H](Cn1cc(C*)nn1)C(=O)O)OCC1c2ccccc2-c2ccccc21; X2 = OC[C@@H]1O[C@H](n2cc(C*)nn2)[C@@H](O)[C@H](O)[C@@H]1O; Biotin = O=C1N[C@H]2[C@H](CS[C@H]2CCCCC(=O)*)N1; X8 = O=P(O)(O)CCn1cc(C*)nn1; X7 = O=C(O)Cn1cc(C*)nn1; Propargyl = C#CC*

The source of these data is ChEMBL document CHEMBL2010719, “Tyrosine modified analogues of the α4β7 integrin inhibitor biotin-R₈ERY prepared via Click Chemistry: synthesis and biological evaluation” (Bioorg Med Chem, 2012).

What all share (type): cell-based
Experiment [1] concerns the target T1, Integrin alpha-4/beta-7 (Mus musculus) (UniProt Q00651+P26011). Kind of experiment: Inhibition of integrin alpha4 beta7 receptor in mouse TK1 cells assessed as inhibition of Mn2+-activated cell adhesion to mouse MAdCAM-1-Fc at 50 uM after 1 hr by methylene blue staining analysis relative to biotin-r9YDRREY.
Experiment [2] concerns the target T1, Integrin alpha-4/beta-7 (Mus musculus). The experiment can be described thus: Inhibition of integrin alpha4 beta7 receptor in mouse TK1 cells assessed as inhibition of Mn2+-activated cell adhesion to mouse MAdCAM-1-Fc at 100 uM after 1 hr using methylene blue staining relative to biotin-r9YDRREY.
The target in a further experiment is T2, Integrin alpha-4/beta-7 (Mus musculus, UniProt P26011+Q00651).
T2 sequence (Q00651 whole entry): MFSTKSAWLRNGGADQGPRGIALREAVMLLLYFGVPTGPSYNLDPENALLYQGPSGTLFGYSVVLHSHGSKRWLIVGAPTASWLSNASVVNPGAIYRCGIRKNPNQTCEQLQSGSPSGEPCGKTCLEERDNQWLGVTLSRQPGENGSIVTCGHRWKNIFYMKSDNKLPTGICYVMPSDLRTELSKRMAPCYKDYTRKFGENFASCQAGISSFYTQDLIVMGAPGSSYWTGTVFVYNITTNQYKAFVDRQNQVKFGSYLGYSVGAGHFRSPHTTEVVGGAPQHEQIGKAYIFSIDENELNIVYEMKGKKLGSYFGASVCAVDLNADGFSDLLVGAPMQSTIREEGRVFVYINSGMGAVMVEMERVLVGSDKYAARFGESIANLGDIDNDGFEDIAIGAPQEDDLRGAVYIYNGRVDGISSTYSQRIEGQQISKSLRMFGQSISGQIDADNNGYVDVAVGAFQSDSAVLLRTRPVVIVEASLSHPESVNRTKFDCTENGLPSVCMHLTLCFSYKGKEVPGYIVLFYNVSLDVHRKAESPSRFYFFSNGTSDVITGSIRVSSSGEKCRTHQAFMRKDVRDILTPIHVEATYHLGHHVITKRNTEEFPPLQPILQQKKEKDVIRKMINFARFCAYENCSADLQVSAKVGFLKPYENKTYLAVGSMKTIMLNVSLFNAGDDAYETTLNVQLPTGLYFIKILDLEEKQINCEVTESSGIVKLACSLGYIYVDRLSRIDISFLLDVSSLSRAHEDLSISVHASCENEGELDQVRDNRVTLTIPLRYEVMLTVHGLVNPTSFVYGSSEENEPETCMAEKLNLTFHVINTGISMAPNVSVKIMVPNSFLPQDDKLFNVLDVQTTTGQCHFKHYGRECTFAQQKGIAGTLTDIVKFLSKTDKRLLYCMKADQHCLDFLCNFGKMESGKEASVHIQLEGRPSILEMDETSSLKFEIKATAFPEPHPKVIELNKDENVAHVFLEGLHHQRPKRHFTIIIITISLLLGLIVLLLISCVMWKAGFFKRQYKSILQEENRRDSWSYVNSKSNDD
T2 sequence (P26011 whole entry): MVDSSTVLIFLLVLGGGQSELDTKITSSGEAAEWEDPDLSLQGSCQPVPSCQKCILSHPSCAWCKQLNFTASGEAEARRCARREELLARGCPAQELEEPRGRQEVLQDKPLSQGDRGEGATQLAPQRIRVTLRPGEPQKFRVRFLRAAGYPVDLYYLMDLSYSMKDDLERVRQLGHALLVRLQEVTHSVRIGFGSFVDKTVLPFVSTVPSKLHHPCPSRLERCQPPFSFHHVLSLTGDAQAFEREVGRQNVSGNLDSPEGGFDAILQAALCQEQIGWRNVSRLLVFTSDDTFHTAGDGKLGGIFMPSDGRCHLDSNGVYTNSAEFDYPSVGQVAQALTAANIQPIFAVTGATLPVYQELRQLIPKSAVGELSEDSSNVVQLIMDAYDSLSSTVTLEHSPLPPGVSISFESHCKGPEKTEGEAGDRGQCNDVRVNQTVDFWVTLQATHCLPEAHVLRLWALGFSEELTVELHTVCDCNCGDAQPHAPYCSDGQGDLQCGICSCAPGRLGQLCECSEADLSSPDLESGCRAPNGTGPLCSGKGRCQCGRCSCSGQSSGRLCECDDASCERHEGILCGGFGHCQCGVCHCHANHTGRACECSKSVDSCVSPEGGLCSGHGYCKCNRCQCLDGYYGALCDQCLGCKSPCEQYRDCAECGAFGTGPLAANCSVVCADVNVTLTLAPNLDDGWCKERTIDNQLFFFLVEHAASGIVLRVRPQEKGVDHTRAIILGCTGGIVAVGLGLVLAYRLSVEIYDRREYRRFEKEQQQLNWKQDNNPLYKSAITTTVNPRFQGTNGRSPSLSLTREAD
Kind of experiment: Inhibition of integrin alpha4 beta7 receptor in mouse TK1 cells assessed as inhibition of Mn2+-activated cell adhesion to mouse MAdCAM-1-Fc after 1 hr using methylene blue staining.

The term inhibition denotes the change of the read-out against control, counted positive when it falls. On to `C#CCOc1ccc(C[C@H](NC(=O)[C@H](CCCNC(=N)N)NC(=O)[C@H](CCC(=O)O)NC(=O)[C@H](CCCNC(=N)N)NC(=O)[C@H](CCCNC(=N)N)NC(=O)[C@H](CCCNC(=N)N)NC(=O)[C@H](CCCNC(=N)N)NC(=O)[C@H](CCCNC(=N)N)NC(=O)[C@H](CCCNC(=N)N)NC(=O)[C@H](CCCNC(=N)N)NC(=O)[C@H](CCCNC(=N)N)NC(=O)CCCC[C@@H]2SC[C@@H]3NC(=O)N[C@@H]32)C(=O)O)cc1` (Biotin-RRRRRRRRERY(Propargyl)-OH), for which the inhibition in experiment [1] and in experiment [2] was 39.8% throughout.
A word on the pIC50: it is the IC50 on a negative log10 scale, so that one unit is a factor of ten. For the molecule `CC(=O)OC[C@@H]1OC(OC(C)=O)[C@@H](n2cc(COc3ccc(C[C@H](NC(=O)[C@H](CCCNC(=N)N)NC(=O)[C@H](CCC(=O)O)NC(=O)[C@H](CCCNC(=N)N)NC(=O)[C@H](CCCNC(=N)N)NC(=O)[C@H](CCCNC(=N)N)NC(=O)[C@H](CCCNC(=N)N)NC(=O)[C@H](CCCNC(=N)N)NC(=O)[C@H](CCCNC(=N)N)NC(=O)[C@H](CCCNC(=N)N)NC(=O)[C@H](CCCNC(=N)N)NC(=O)CCCC[C@@H]4SC[C@@H]5NC(=O)N[C@@H]54)C(=O)O)cc3)nn2)[C@H](OC(C)=O)[C@@H]1OC(C)=O` (some centres not stated) (Biotin-RRRRRRRRERY(X1)-OH), the inhibition in experiment [1] was found to be 104%; in experiment [2], 105%. In addition, at Integrin alpha-4/beta-7, the negative-log IC50 (pIC50) is 4.30.
For `N=C(N)NCCC[C@H](NC(=O)CCCC[C@@H]1SC[C@@H]2NC(=O)N[C@@H]21)C(=O)N[C@@H](CCCNC(=N)N)C(=O)N[C@@H](CCCNC(=N)N)C(=O)N[C@@H](CCCNC(=N)N)C(=O)N[C@@H](CCCNC(=N)N)C(=O)N[C@@H](CCCNC(=N)N)C(=O)N[C@@H](CCCNC(=N)N)C(=O)N[C@@H](CCCNC(=N)N)C(=O)N[C@@H](CCC(=O)O)C(=O)N[C@@H](CCCNC(=N)N)C(=O)N[C@@H](Cc1ccc(OCc2cn([C@H]3O[C@@H](CO)[C@@H](O)[C@@H](O)[C@@H]3O)nn2)cc1)C(=O)O` (Biotin-RRRRRRRRERY(X2)-OH), the inhibition in experiment [1] was 60.2%; in experiment [2], 62.7%.
Take `CC(=O)N[C@H]1[C@H](OC(C)=O)[C@H](OC(C)=O)[C@H](COC(C)=O)O[C@@H]1n1cc(COc2ccc(C[C@H](NC(=O)[C@H](CCCNC(=N)N)NC(=O)[C@H](CCC(=O)O)NC(=O)[C@H](CCCNC(=N)N)NC(=O)[C@H](CCCNC(=N)N)NC(=O)[C@H](CCCNC(=N)N)NC(=O)[C@H](CCCNC(=N)N)NC(=O)[C@H](CCCNC(=N)N)NC(=O)[C@H](CCCNC(=N)N)NC(=O)[C@H](CCCNC(=N)N)NC(=O)[C@H](CCCNC(=N)N)NC(=O)CCCC[C@@H]3SC[C@@H]4NC(=O)N[C@@H]43)C(=O)O)cc2)nn1` (Biotin-RRRRRRRRERY(X3)-OH): the inhibition in experiment [1] came out at 40%; in experiment [2] it was 46.5%.
For `CC(=O)N[C@H]1[C@H](O)[C@H](O)[C@H](CO)O[C@@H]1n1cc(COc2ccc(C[C@H](NC(=O)[C@H](CCCNC(=N)N)NC(=O)[C@H](CCC(=O)O)NC(=O)[C@H](CCCNC(=N)N)NC(=O)[C@H](CCCNC(=N)N)NC(=O)[C@H](CCCNC(=N)N)NC(=O)[C@H](CCCNC(=N)N)NC(=O)[C@H](CCCNC(=N)N)NC(=O)[C@H](CCCNC(=N)N)NC(=O)[C@H](CCCNC(=N)N)NC(=O)[C@H](CCCNC(=N)N)NC(=O)CCCC[C@@H]3SC[C@@H]4NC(=O)N[C@@H]43)C(=O)O)cc2)nn1` (Biotin-RRRRRRRRERY(X4)-OH), in that order: 28% and 39.6%.
For the molecule `N=C(N)NCCC[C@H](NC(=O)CCCC[C@@H]1SC[C@@H]2NC(=O)N[C@@H]21)C(=O)N[C@@H](CCCNC(=N)N)C(=O)N[C@@H](CCCNC(=N)N)C(=O)N[C@@H](CCCNC(=N)N)C(=O)N[C@@H](CCCNC(=N)N)C(=O)N[C@@H](CCCNC(=N)N)C(=O)N[C@@H](CCCNC(=N)N)C(=O)N[C@@H](CCCNC(=N)N)C(=O)N[C@@H](CCC(=O)O)C(=O)N[C@@H](CCCNC(=N)N)C(=O)N[C@@H](Cc1ccc(OCc2cn(C[C@H](NC(=O)OCC3c4ccccc4-c4ccccc43)C(=O)O)nn2)cc1)C(=O)O` (Biotin-RRRRRRRRERY(X5)-OH), the values for the inhibition in experiment [1] and in experiment [2] were 114% and 111%, respectively. Also, the pIC50 at Integrin alpha-4/beta-7 is greater than 5.00.
For `CC(=O)OC[C@@H]1O[C@H](n2cc(COc3ccc(C[C@H](NC(=O)[C@H](CCCNC(=N)N)NC(=O)[C@H](CCC(=O)O)NC(=O)[C@H](CCCNC(=N)N)NC(=O)[C@H](CCCNC(=N)N)NC(=O)[C@H](CCCNC(=N)N)NC(=O)[C@H](CCCNC(=N)N)NC(=O)[C@H](CCCNC(=N)N)NC(=O)[C@H](CCCNC(=N)N)NC(=O)[C@H](CCCNC(=N)N)NC(=O)[C@H](CCCNC(=N)N)NC(=O)CCCC[C@@H]4SC[C@@H]5NC(=O)N[C@@H]54)C(=O)O)cc3)nn2)[C@@H](OC(C)=O)[C@H](OC(C)=O)[C@@H]1OC(C)=O` (Biotin-RRRRRRRRERY(X6)-OH), the inhibition in experiment [1] stood at 47.4%; in experiment [2], 52.5%.
For `N=C(N)NCCC[C@H](NC(=O)CCCC[C@@H]1SC[C@@H]2NC(=O)N[C@@H]21)C(=O)N[C@@H](CCCNC(=N)N)C(=O)N[C@@H](CCCNC(=N)N)C(=O)N[C@@H](CCCNC(=N)N)C(=O)N[C@@H](CCCNC(=N)N)C(=O)N[C@@H](CCCNC(=N)N)C(=O)N[C@@H](CCCNC(=N)N)C(=O)N[C@@H](CCCNC(=N)N)C(=O)N[C@@H](CCC(=O)O)C(=O)N[C@@H](CCCNC(=N)N)C(=O)N[C@@H](Cc1ccc(OCc2cn(CC(=O)O)nn2)cc1)C(=O)O` (Biotin-RRRRRRRRERY(X7)-OH), in that order: 56.1% and 34.9%.
For `N=C(N)NCCC[C@H](NC(=O)CCCC[C@@H]1SC[C@@H]2NC(=O)N[C@@H]21)C(=O)N[C@@H](CCCNC(=N)N)C(=O)N[C@@H](CCCNC(=N)N)C(=O)N[C@@H](CCCNC(=N)N)C(=O)N[C@@H](CCCNC(=N)N)C(=O)N[C@@H](CCCNC(=N)N)C(=O)N[C@@H](CCCNC(=N)N)C(=O)N[C@@H](CCCNC(=N)N)C(=O)N[C@@H](CCC(=O)O)C(=O)N[C@@H](CCCNC(=N)N)C(=O)N[C@@H](Cc1ccc(OCc2cn(CCP(=O)(O)O)nn2)cc1)C(=O)O` (Biotin-RRRRRRRRERY(X8)-OH), the values for the inhibition in experiment [1] and in experiment [2] were 60.3% and 65.4%, respectively.
Take `CC(=O)N[C@@H]1[C@H](OCCCn2cc(COc3ccc(C[C@H](NC(=O)[C@H](CCCNC(=N)N)NC(=O)[C@H](CCC(=O)O)NC(=O)[C@H](CCCNC(=N)N)NC(=O)[C@H](CCCNC(=N)N)NC(=O)[C@H](CCCNC(=N)N)NC(=O)[C@H](CCCNC(=N)N)NC(=O)[C@H](CCCNC(=N)N)NC(=O)[C@H](CCCNC(=N)N)NC(=O)[C@H](CCCNC(=N)N)NC(=O)[C@H](CCCNC(=N)N)NC(=O)CCCC[C@@H]4SC[C@@H]5NC(=O)N[C@@H]54)C(=O)O)cc3)nn2)O[C@@H](CO)[C@@H](O)[C@H]1O` (Biotin-RRRRRRRRERY(X9)-OH): the inhibition in experiment [1] is 41.5%; in experiment [2], 42.4%.
